{
  "source": "paper PMC5218480",
  "about": "(PLoS ONE, 2017)",
  "system": "MV-4-11 cells",
  "test": "Gene expression microarray analysis (Affymetrix PrimeView) and GSEA",
  "type": "cell-based, human",
  "parameters": "RFU PODN (11730768_x_at) / Fold change /veh PODN (11730768_x_at) / RFU LINC00158 (11744669_a_at) / Fold change /veh LINC00158 (11744669_a_at) / RFU DUSP10 (11751237_a_at) / Fold change /veh DUSP10 (11751237_a_at) / RFU ID3 (11757404_x_at) / Fold change /veh ID3 (11757404_x_at) / RFU PLEKHG5 (11737974_s_at) / Fold change /veh PLEKHG5 (11737974_s_at) / RFU LRRC4B (11730491_at) / Fold change /veh LRRC4B (11730491_at) / RFU GIMAP4 (11747438_a_at) / Fold change /veh GIMAP4 (11747438_a_at) / RFU KRT8 (11758183_x_at) / Fold change /veh KRT8 (11758183_x_at) / RFU CNN1 (11734310_a_at) / Fold change /veh CNN1 (11734310_a_at) / RFU VPS37D (11726825_at) / Fold change /veh VPS37D (11726825_at) / RFU C10orf10 (11716522_x_at) / Fold change /veh C10orf10 (11716522_x_at) / RFU KIR2DL2 /// KIR2DL4 /// KIR2DL5A /// KIR2DL5B /// KIR2DS1 /// KIR2DS2 /// KIR2DS3 /// KIR2DS4 /// KIR3DL3 /// KIR3DL3 /// KIR3DS1 (11738374_at) / Fold change /veh KIR2DL2 /// KIR2DL4 /// KIR2DL5A /// KIR2DL5B /// KIR2DS1 /// KIR2DS2 /// KIR2DS3 /// KIR2DS4 /// KIR3DL3 /// KIR3DL3 /// KIR3DS1 (11738374_at) / RFU C1QL1 (11718748_at) / Fold change /veh C1QL1 (11718748_at) / RFU TMPRSS4 (11747572_a_at) / Fold change /veh TMPRSS4 (11747572_a_at) / RFU HAMP (11756126_x_at) / Fold change /veh HAMP (11756126_x_at) / RFU RNFT2 (11725882_a_at) / Fold change /veh RNFT2 (11725882_a_at) / RFU NR4A2 (11747474_a_at) / Fold change /veh NR4A2 (11747474_a_at) / RFU ABCC12 (11746883_a_at) / Fold change /veh ABCC12 (11746883_a_at) / RFU TMEM136 (11760407_x_at) / Fold change /veh TMEM136 (11760407_x_at) / RFU CLDN22 /// WWC2 (11732394_at) / Fold change /veh CLDN22 /// WWC2 (11732394_at) / RFU HLA-DPB1 (11760878_x_at) / Fold change /veh HLA-DPB1 (11760878_x_at) / RFU SPINT1 (11716480_a_at) / Fold change /veh SPINT1 (11716480_a_at) / RFU GAP43 (11754022_s_at) / Fold change /veh GAP43 (11754022_s_at) / RFU A4GNT (11735810_at) / Fold change /veh A4GNT (11735810_at) / RFU PRB3 (11715151_x_at) / Fold change /veh PRB3 (11715151_x_at) / RFU TUBB4B (11761932_at) / Fold change /veh TUBB4B (11761932_at) / RFU CAPN14 (11732068_a_at) / Fold change /veh CAPN14 (11732068_a_at) / RFU TMCC2 (11721928_a_at) / Fold change /veh TMCC2 (11721928_a_at) / RFU IRGQ (11745062_a_at) / Fold change /veh IRGQ (11745062_a_at) / RFU FAM174B (11720279_a_at) / Fold change /veh FAM174B (11720279_a_at) / RFU TMPRSS4 (11748680_a_at) / Fold change /veh TMPRSS4 (11748680_a_at) / RFU FAM212B (11763350_a_at) / Fold change /veh FAM212B (11763350_a_at) / RFU PLEKHG5 (11743358_a_at) / Fold change /veh PLEKHG5 (11743358_a_at) / RFU ZSCAN30 (11745921_a_at) / Fold change /veh ZSCAN30 (11745921_a_at) / RFU CMKLR1 (11741424_a_at) / Fold change /veh CMKLR1 (11741424_a_at) / RFU LOC101060620 /// MAPK8IP1 (11723275_at) / Fold change /veh LOC101060620 /// MAPK8IP1 (11723275_at) / RFU SPTSSB (11747773_x_at) / Fold change /veh SPTSSB (11747773_x_at) / RFU PRSS12 (11739890_at) / Fold change /veh PRSS12 (11739890_at) / RFU BIN1 (11741810_x_at) / Fold change /veh BIN1 (11741810_x_at) / RFU WNT11 (11732464_a_at) / Fold change /veh WNT11 (11732464_a_at) / RFU C10orf10 (11716521_a_at) / Fold change /veh C10orf10 (11716521_a_at) / RFU C5orf56 (11738089_at) / Fold change /veh C5orf56 (11738089_at) / RFU CYB561 (11721691_x_at) / Fold change /veh CYB561 (11721691_x_at) / RFU ANKRD19P (11752326_a_at) / Fold change /veh ANKRD19P (11752326_a_at) / RFU OR2T12 /// OR2T33 /// OR2T8 (11738714_s_at) / Fold change /veh OR2T12 /// OR2T33 /// OR2T8 (11738714_s_at) / RFU VCAN (11748164_a_at) / Fold change /veh VCAN (11748164_a_at) / RFU JSRP1 (11732532_at) / Fold change /veh JSRP1 (11732532_at) / RFU KRTAP10-11 (11738290_x_at) / Fold change /veh KRTAP10-11 (11738290_x_at) / RFU MYO3A (11730013_a_at) / Fold change /veh MYO3A (11730013_a_at) / RFU EBF3 (11725865_a_at) / Fold change /veh EBF3 (11725865_a_at) / RFU CAMK2N1 (11719241_x_at) / Fold change /veh CAMK2N1 (11719241_x_at) / RFU C5orf56 (11738088_a_at) / Fold change /veh C5orf56 (11738088_a_at) / RFU OLFML3 (11715873_a_at) / Fold change /veh OLFML3 (11715873_a_at) / RFU LOC100653217 /// NTM (11731650_a_at) / Fold change /veh LOC100653217 /// NTM (11731650_a_at) / RFU MAPK11 (11762145_a_at) / Fold change /veh MAPK11 (11762145_a_at) / RFU FIZ1 (11724087_x_at) / Fold change /veh FIZ1 (11724087_x_at) / RFU OASL (11726364_x_at) / Fold change /veh OASL (11726364_x_at) / RFU SOX15 (11748057_x_at) / Fold change /veh SOX15 (11748057_x_at) / RFU CD79A (11719716_a_at) / Fold change /veh CD79A (11719716_a_at) / RFU HIST1H1D (11736915_at) / Fold change /veh HIST1H1D (11736915_at) / RFU CASKIN2 (11723855_a_at) / Fold change /veh CASKIN2 (11723855_a_at) / RFU LOC730098 (11760151_x_at) / Fold change /veh LOC730098 (11760151_x_at) / RFU OR4N2 (11742367_at) / Fold change /veh OR4N2 (11742367_at) / RFU PRRT2 (11749266_a_at) / Fold change /veh PRRT2 (11749266_a_at) / RFU SNX32 (11753110_a_at) / Fold change /veh SNX32 (11753110_a_at) / RFU CDHR5 (11726645_a_at) / Fold change /veh CDHR5 (11726645_a_at) / RFU RCAN1 (11760418_a_at) / Fold change /veh RCAN1 (11760418_a_at) / RFU FAM167A (11723789_a_at) / Fold change /veh FAM167A (11723789_a_at) / RFU FAM26E (11764081_at) / Fold change /veh FAM26E (11764081_at) / RFU ISYNA1 (11749810_s_at) / Fold change /veh ISYNA1 (11749810_s_at) / RFU ACY1 (11761880_at) / Fold change /veh ACY1 (11761880_at) / RFU 11764098_at / Fold change /veh 11764098_at / RFU SAMD14 (11745864_x_at) / Fold change /veh SAMD14 (11745864_x_at) / RFU NPB (11741838_a_at) / Fold change /veh NPB (11741838_a_at) / RFU TMPRSS6 (11731388_a_at) / Fold change /veh TMPRSS6 (11731388_a_at) / RFU KRTAP10-2 (11738614_at) / Fold change /veh KRTAP10-2 (11738614_at) / RFU ARHGAP8 /// PRR5-ARHGAP8 (11727945_x_at) / Fold change /veh ARHGAP8 /// PRR5-ARHGAP8 (11727945_x_at) / RFU KRTAP5-7 /// NADSYN1 (11734609_at) / Fold change /veh KRTAP5-7 /// NADSYN1 (11734609_at) / RFU RASL12 (11751679_a_at) / Fold change /veh RASL12 (11751679_a_at) / RFU CDKN2B (11736163_a_at) / Fold change /veh CDKN2B (11736163_a_at) / RFU PRF1 (11729649_at) / Fold change /veh PRF1 (11729649_at) / RFU, ZNF638 /// ZNF638-IT1 / Fold change vs veh, ZNF638 /// ZNF638-IT1 / RFU, PANK3 / Fold change vs veh, PANK3 / RFU, SH3YL1 / Fold change vs veh, SH3YL1 / RFU, ZEB2 / Fold change vs veh, ZEB2 / RFU, NRIP1 / Fold change vs veh, NRIP1 / RFU, PTTG1IP / Fold change vs veh, PTTG1IP / RFU, CAPN2 / Fold change vs veh, CAPN2 / RFU, MED14 / Fold change vs veh, MED14 / RFU, SNORA58 / Fold change vs veh, SNORA58 / RFU, C1orf63 / Fold change vs veh, C1orf63 / RFU, LRRFIP1 / Fold change vs veh, LRRFIP1 / RFU, NDUFAF7 / Fold change vs veh, NDUFAF7 / RFU, SLC12A2 / Fold change vs veh, SLC12A2 / RFU, IBTK / Fold change vs veh, IBTK / RFU, ESF1 / Fold change vs veh, ESF1 / Fold change vs veh, TMEM50B / RFU, TAOK1 / Fold change vs veh, TAOK1 / RFU, ACBD3 / Fold change vs veh, ACBD3 / RFU, TMA16 / Fold change vs veh, TMA16 / RFU, RWDD3 / Fold change vs veh, RWDD3 / RFU, BCAT1 / Fold change vs veh, BCAT1 / RFU, EDEM3 / Fold change vs veh, EDEM3 / RFU, TMEM33 / Fold change vs veh, TMEM33 / RFU, WDR75 / Fold change vs veh, WDR75 / RFU, AHCTF1 / Fold change vs veh, AHCTF1 / RFU, TFRC / Fold change vs veh, TFRC / RFU, ZDHHC17 / Fold change vs veh, ZDHHC17 / RFU, NOM1 / Fold change vs veh, NOM1 / RFU, ARL8B / Fold change vs veh, ARL8B / RFU, ZBTB11 / Fold change vs veh, ZBTB11 / RFU, TAMM41 / Fold change vs veh, TAMM41 / RFU, KIAA1704 /// LOC100996395 / Fold change vs veh, KIAA1704 /// LOC100996395 / RFU, ING1 / Fold change vs veh, ING1 / RFU, TRMT61B / Fold change vs veh, TRMT61B / RFU, FUBP3 / Fold change vs veh, FUBP3 / RFU, TP53 / Fold change vs veh, TP53 / RFU, TNKS2 / Fold change vs veh, TNKS2 / RFU, ZFP14 / Fold change vs veh, ZFP14 / RFU, ACTR2 / Fold change vs veh, ACTR2 / RFU, PPP3R1 / Fold change vs veh, PPP3R1 / RFU, PIK3R1 / Fold change vs veh, PIK3R1 / RFU, HNRNPA1 / Fold change vs veh, HNRNPA1 / RFU, RNF170 / Fold change vs veh, RNF170 / RFU, ZNF28 / Fold change vs veh, ZNF28 / RFU, RNGTT / Fold change vs veh, RNGTT / RFU, OGT / Fold change vs veh, OGT / RFU, BRD1 / Fold change vs veh, BRD1 / RFU, MARS / Fold change vs veh, MARS / RFU, ZNF655 / Fold change vs veh, ZNF655 / RFU, FAHD1 / Fold change vs veh, FAHD1 / RFU, BDP1 / Fold change vs veh, BDP1 / RFU, LRRCC1 / Fold change vs veh, LRRCC1 / RFU, ARID1A / Fold change vs veh, ARID1A / RFU, ZNF146 / Fold change vs veh, ZNF146 / RFU, ZNF330 / Fold change vs veh, ZNF330 / RFU, GPN3 / Fold change vs veh, GPN3 / RFU, C9orf123 / Fold change vs veh, C9orf123 / RFU, N4BP2L2 / Fold change vs veh, N4BP2L2 / RFU, ARFIP1 / Fold change vs veh, ARFIP1 / RFU, FAM179B / Fold change vs veh, FAM179B / RFU, BCL10 / Fold change vs veh, BCL10 / RFU, UHRF1BP1L / Fold change vs veh, UHRF1BP1L / RFU, BET1 / Fold change vs veh, BET1 / RFU, CNOT2 / Fold change vs veh, CNOT2 / RFU, ZNF268 / Fold change vs veh, ZNF268 / Fold change vs veh, ZNF507 / RFU, DGCR2 / Fold change vs veh, DGCR2 / RFU, WDSUB1 / Fold change vs veh, WDSUB1 / Fold change vs veh, HSP90B1 /// MIR3652 / RFU, ADSS / Fold change vs veh, ADSS / RFU, GK / Fold change vs veh, GK / RFU, ZNF148 / Fold change vs veh, ZNF148 / RFU, TAF9 / Fold change vs veh, TAF9 / RFU, SLC1A5 / Fold change vs veh, SLC1A5 / RFU, SLMO2 / Fold change vs veh, SLMO2 / RFU, ABCC4 / Fold change vs veh, ABCC4 / RFU, LOC101060439 /// RAP1B / Fold change vs veh, LOC101060439 /// RAP1B / RFU, RFX7 / Fold change vs veh, RFX7 / RFU, GTPBP10 / Fold change vs veh, GTPBP10 / RFU, CNEP1R1 / Fold change vs veh, CNEP1R1 / RFU, BIVM-ERCC5 /// ERCC5 / Fold change vs veh, BIVM-ERCC5 /// ERCC5 / RFU, ILF3 / Fold change vs veh, ILF3 / RFU 11762660_at / Fold change /veh 11762660_at / RFU VCAN (11757783_s_at) / Fold change /veh VCAN (11757783_s_at) / RFU DDX43 (11728927_at) / Fold change /veh DDX43 (11728927_at) / RFU KRT8 (11758188_x_at) / Fold change /veh KRT8 (11758188_x_at) / RFU NKD1 (11759106_at) / Fold change /veh NKD1 (11759106_at) / RFU SRD5A1 (11742802_a_at) / Fold change /veh SRD5A1 (11742802_a_at) / RFU TPSAB1 /// TPSB2 (11721975_s_at) / Fold change /veh TPSAB1 /// TPSB2 (11721975_s_at) / RFU GSTM3 (11746129_a_at) / Fold change /veh GSTM3 (11746129_a_at) / RFU IL23R (11737362_x_at) / Fold change /veh IL23R (11737362_x_at) / RFU TMEM51 (11727254_a_at) / Fold change /veh TMEM51 (11727254_a_at) / RFU PIWIL2 (11732686_x_at) / Fold change /veh PIWIL2 (11732686_x_at) / RFU ORM1 (11744905_x_at) / Fold change /veh ORM1 (11744905_x_at) / RFU CCDC152 (11743942_at) / Fold change /veh CCDC152 (11743942_at) / RFU ECM1 (11717891_a_at) / Fold change /veh ECM1 (11717891_a_at) / RFU IL23R (11748794_a_at) / Fold change /veh IL23R (11748794_a_at) / RFU TNFAIP8L3 (11732012_x_at) / Fold change /veh TNFAIP8L3 (11732012_x_at) / RFU MBOAT4 (11741988_at) / Fold change /veh MBOAT4 (11741988_at) / RFU 11764193_at / Fold change /veh 11764193_at / RFU TMEM53 (11763286_at) / Fold change /veh TMEM53 (11763286_at) / RFU MAGEB2 (11727129_at) / Fold change /veh MAGEB2 (11727129_at) / RFU TMEM200A (11744735_a_at) / Fold change /veh TMEM200A (11744735_a_at) / RFU CCDC152 (11751479_a_at) / Fold change /veh CCDC152 (11751479_a_at) / RFU FAM211A (11726209_a_at) / Fold change /veh FAM211A (11726209_a_at) / RFU RGS16 (11746705_a_at) / Fold change /veh RGS16 (11746705_a_at) / RFU VCAN (11755009_s_at) / Fold change /veh VCAN (11755009_s_at) / RFU RHOB (11743442_s_at) / Fold change /veh RHOB (11743442_s_at) / RFU RGS16 (11720943_a_at) / Fold change /veh RGS16 (11720943_a_at) / RFU RGS16 (11720944_at) / Fold change /veh RGS16 (11720944_at) / RFU, VPS4B / Fold change vs veh, VPS4B / RFU, CREB1 / Fold change vs veh, CREB1 / RFU, DNAJC13 / Fold change vs veh, DNAJC13 / RFU, GNAQ / Fold change vs veh, GNAQ / RFU, CDK5R1 / Fold change vs veh, CDK5R1 / RFU, ZRANB3 / Fold change vs veh, ZRANB3 / RFU, CUL4A / Fold change vs veh, CUL4A / RFU, CCNY / Fold change vs veh, CCNY / RFU, UFL1 / Fold change vs veh, UFL1 / RFU, COG3 / Fold change vs veh, COG3 / RFU, DIAPH2 / Fold change vs veh, DIAPH2 / RFU, SKA2 / Fold change vs veh, SKA2 / RFU, AFF3 / Fold change vs veh, AFF3 / RFU, LMF1 / Fold change vs veh, LMF1 / RFU, IPO11 / Fold change vs veh, IPO11 / RFU, DFFB / Fold change vs veh, DFFB / RFU, FOXP1 / Fold change vs veh, FOXP1 / RFU, CARD8 / Fold change vs veh, CARD8 / RFU, STRN3 / Fold change vs veh, STRN3 / RFU, ADK / Fold change vs veh, ADK / RFU, RASSF2 / Fold change vs veh, RASSF2 / RFU, WIPF1 / Fold change vs veh, WIPF1 / RFU, LARP1B / Fold change vs veh, LARP1B / RFU, RASA1 / Fold change vs veh, RASA1 / RFU, RB1 / Fold change vs veh, RB1 / RFU, PPFIA1 / Fold change vs veh, PPFIA1 / RFU, MAT2A / Fold change vs veh, MAT2A / RFU, CCT5 / Fold change vs veh, CCT5 / RFU, WDR92 / Fold change vs veh, WDR92 / RFU, CUX1 / Fold change vs veh, CUX1 / RFU, TTC7A / Fold change vs veh, TTC7A / RFU, TMEM135 / Fold change vs veh, TMEM135 / RFU, DEPTOR / Fold change vs veh, DEPTOR / RFU, CPM / Fold change vs veh, CPM / RFU, DNAJB6 / Fold change vs veh, DNAJB6 / RFU, CACNA2D3 / Fold change vs veh, CACNA2D3 / RFU, DTX4 / Fold change vs veh, DTX4 / RFU, TFCP2 / Fold change vs veh, TFCP2 / RFU, GMCL1 /// GMCL1P1 / Fold change vs veh, GMCL1 /// GMCL1P1 / RFU, AEBP2 / Fold change vs veh, AEBP2 / RFU, SNHG1 /// SNORD22 /// SNORD25 /// SNORD26 /// SNORD27 /// SNORD28 /// SNORD29 /// SNORD31 / Fold change vs veh, SNHG1 /// SNORD22 /// SNORD25 /// SNORD26 /// SNORD27 /// SNORD28 /// SNORD29 /// SNORD31 / Fold change (Aza/veh), C12orf56 (ProbeSet 11735607_a_at) / Fold change (ACY-1035/veh), C12orf56 (ProbeSet 11735607_a_at) / Fold change (Aza/veh), FGFR1OP (ProbeSet 11751329_s_at) / Fold change (ACY-1035/veh), FGFR1OP (ProbeSet 11751329_s_at) / Fold change (Aza/veh), VPS36 (ProbeSet 11739960_a_at) / Fold change (ACY-1035/veh), VPS36 (ProbeSet 11739960_a_at) / RFU SYPL1 (11715823_x_at) / Fold change /veh SYPL1 (11715823_x_at) / RFU IGFBP7 (11715501_s_at) / Fold change /veh IGFBP7 (11715501_s_at) / RFU REEP3 (11722064_at) / Fold change /veh REEP3 (11722064_at) / RFU IGLL1 (11728026_x_at) / Fold change /veh IGLL1 (11728026_x_at): dose or concentration left out as unconfirmed",
  "details": "ProbeSet 11729173_a_at; LIST D",
  "data": [
    {"compound": "Nc1ccc(-c2cccs2)cc1NC(=O)c1ccc2c(c1)cc(C1CC1)n2CCN1CCOCC1", "note": "[ACY-1035]", "values": [
      {"measurement": "Fold change vs veh, SKA2", "value": 0.84}
    ]}
  ]
}
